In US6083677A, “Photographic element containing yellow dye-forming photographic coupler” (Eastman Kodak Company, priority 1998, dated 2000):

Tests used:
[1] = Spectrophotometric response of dyes in dilute acetonitrile solution; format: physicochemical; conditions: for Extinction: in M-1 cm-1 (unit assumed)
Source text: As mentioned previously, many characteristics of a photographic image depend upon the spectral response of the dyes forming that image. The greater the molar extinction of an image-forming dye the less silver is needed to produce that dye; lower silver laydowns may lead to sharper photographic images. The color of a dye depends upon the position of its maximum light absorption (λ-max). With yellow dyes, the deeper (more bathochromic) the λmax of the dye the more orange the color of the dye. Orange dyes cannot be employed to effectively reproduce bright lemon yellows, thus lighter yellow dyes arc preferred for better color reproduction. Finally, the ideal yellow dye absorbs only light in the blue portion of the visible spectrum; yellow dyes that absorb substantial amounts of green light appear desaturated and therefore yield poorer color reproduction. The bathochromic (long wavelength side) one-half bandwidth (B1/2BW) is a good measure of the degree of unwanted absorption of a yellow dye. The B1/2BW is the distance on the long wavelength side of the dye's spectral response curve, in nanometers, from the λmax to the wavelength of 1/2 the maximum absorption. The smaller the B1/2BW distance, the more sharp-cutting is the spectral response of a dye and the better the color reproduction available from the dye.
^a. Spectrophotometric data derived from dilute acetonitrile solution
of chromatographically homogenous dyes; see Table 3 for invention dye

[2] = Accelerated solution test of acid hydrolysis of yellow dyes (HPLC); format: physicochemical; set-up: kobs rate of hydrolysis: unit not given here; conditions: 1 mM dye in 6% Triton X100, pH 2.0, phosphate buffer, 50° C.
Protocol: The hydrolytic stability or acid catalyzed decomposition of yellow azomethine dyes is an important pathway in the degradation of photographic images. It is believed that the stability of yellow dyes toward acidic hydrolysis is predictive of their stability in color photographic images.
The rates of hydrolysis of a variety of dyes have been measured using an accelerated solution test format. The dyes (1.0 mM dye in 6% Triton X-100®) in buffered acidic solutions (pH=2.0, μ=0.2, phosphate buffer) were held at 50° C. The rates of dye destruction were monitored using standard HPLC procedures.
^a. 1 mM dye in 6% Triton X100 ® (60 g/l octylphenoxy
polyethoxyethanols, Avg M.W. = 646) solution in pH 2.0, […],
phosphate buffer at 50° C.

| Structure (SMILES) | B1/2BW (bathochromic one-half bandwidth) [1] [nm] | λmax [1] [nm] | Extinction [1] | kobs rate of hydrolysis [2] | t1/2 - time for 1/2 the dye to hydrolyze [2] |
| --- | --- | --- | --- | --- | --- |
| CCCCc1ccc(NC(=O)C(=Nc2ccc(N(CC)CCNS(C)(=O)=O)cc2C)C(=O)c2c3c(n(C)c2-c2ccccc2)CCC3)cc1 [Coupler D-10] | 35 | 424 | 17,700 |  |  |
| CCCCCCCCCCCCOC(=O)c1ccc(Cl)c(NC(=O)C(=Nc2ccc(N(CC)CCNS(C)(=O)=O)cc2C)C(=O)C(C)(C)C)c1 [Cmp-10, reference compound] |  |  |  | 5.57 | 35 h |
| CCCCc1ccc(NC(=O)C(=Nc2ccc(N(CC)CCNS(C)(=O)=O)cc2C)C(=O)c2cccn2-c2ccccc2)cc1 [Cmp-3, reference compound] | 40 | 426 | 13,700 |  |  |
| CCCCCCCCCCCCCCCCS(=O)(=O)Nc1ccc(Cl)c(NC(=O)C(=Nc2ccc(N(CC)CCNS(C)(=O)=O)cc2C)C(=O)C(C)(C)C)c1 [Cmp-11, reference compound] |  |  |  | 12.1 | 16 h |
| CCCCc1ccc(NC(=O)C(=Nc2ccc(N(CC)CCNS(C)(=O)=O)cc2C)C(=O)c2c(-c3ccccc3)c3ccccc3n2C)cc1 [Coupler D-14] | 46 | 438 | 11,900 |  |  |
| CCCCc1ccc(NC(=O)C(=Nc2ccc(N(CC)CCNS(C)(=O)=O)cc2C)C(=O)c2c(C)n(C)c3ccccc23)cc1 [Coupler D-4] | 37 | 428 | 16,200 |  |  |
| CCCCc1ccc(NC(=O)C(=Nc2ccc(N(CC)CCNS(C)(=O)=O)cc2C)C(=O)c2c3n(c4ccccc24)CCCC3)cc1 [Coupler D-6] | 38 | 426 | 17,300 |  |  |
| CCCCc1ccc(NC(=O)C(=Nc2ccc(N(CC)CCNS(C)(=O)=O)cc2C)C(=O)c2c(-c3ccccc3)n(-c3ccccc3)c3ccccc23)cc1 [Coupler D-8] | 33 | 426 | 16,600 |  |  |
| CCCCCCCCCCCCn1c(-c2ccccc2)c(C(=O)C(=Nc2ccc(N(CC)CCNS(C)(=O)=O)cc2C)C(=O)Nc2ccc(S(C)(=O)=O)cc2Cl)c2ccccc21 [Coupler D-16] |  |  |  | 0.38 | 500 h |
| CCCCCCCCCCCCCCCCOC(=O)c1ccc(Cl)c(NC(=O)C(=Nc2ccc(N(CC)CCNS(C)(=O)=O)cc2C)C(=O)c2c(C)n(C)c3ccccc23)c1 [Coupler D-18] |  |  |  | 9.63 | 20 h |
| CCCCCCCCCCCCCCCCOC(=O)c1ccc(Cl)c(NC(=O)C(=Nc2ccc(N(CC)CCNS(C)(=O)=O)cc2C)C(=O)c2c(C3CCCCC3)n(C)c3ccccc23)c1 [Coupler D-19] |  |  |  | 1.91 | 101 h |

Other lines, results leading:

| B1/2BW (bathochromic one-half bandwidth) [1] [nm] | λmax [1] [nm] | Extinction [1] | kobs rate of hydrolysis [2] | t1/2 - time for 1/2 the dye to hydrolyze [2] | Structure (SMILES) |
| --- | --- | --- | --- | --- | --- |
| 39 | 428 | 13,500 |  |  | CCCCc1ccc(NC(=O)C(=Nc2ccc(N(CC)CCNS(C)(=O)=O)cc2C)C(=O)c2cn(C)c3ccccc23)cc1 [Coupler D-3] |
| 42 | 430 | 12,800 |  |  | CCCCc1ccc(NC(=O)C(=Nc2ccc(N(CC)CCNS(C)(=O)=O)cc2C)C(=O)c2ccn(-c3ccccc3)c2)cc1 [Cmp-1, reference compound] |
| 33 | 426 | 21,300 |  |  | CCCCc1ccc(NC(=O)C(=Nc2ccc(N(CC)CCNS(C)(=O)=O)cc2C)C(=O)c2c(-c3ccccc3)n(C)c3ccc(OC)cc23)cc1 [Coupler D-11] |
| 40 | 428 | 13,900 |  |  | CCCCc1ccc(NC(=O)C(=Nc2ccc(N(CC)CCNS(C)(=O)=O)cc2C)C(=O)c2cn(-c3ccccc3)cc2C)cc1 [Cmp-2, reference compound] |
|  |  |  | 0.17 | 1,150 hr | CCCCCCCCCCCCS(=O)(=O)c1ccc(NC(=O)C(=Nc2ccc(N(CC)CCNS(C)(=O)=O)cc2C)C(=O)c2c(-c3ccccc3)n(C)c3ccccc23)c(Cl)c1 [Coupler D-15] |
|  |  |  | 0.31 | 610 h | CCCCCCCCCCCCNS(=O)(=O)c1ccc(NC(=O)C(=Nc2ccc(N(CC)CCNS(C)(=O)=O)cc2C)C(=O)c2c(-c3ccccc3)n(C)c3ccccc23)c(Cl)c1 [Coupler D-17] |
| 37 | 428 | 16,800 |  |  | CCCCc1ccc(NC(=O)C(=Nc2ccc(N(CC)CCNS(C)(=O)=O)cc2C)C(=O)c2c(C3CCCCC3)n(C)c3ccccc23)cc1 [Coupler D-5] |
| 34 | 422 | 19,300 |  |  | CCCCc1ccc(NC(=O)C(=Nc2ccc(N(CC)CCNS(C)(=O)=O)cc2C)C(=O)c2c3c(n(C)c2-c2ccccc2)CCCC3)cc1 [Coupler D-9] |
| 40 | 434 | 12,600 |  |  | CCCCc1ccc(NC(=O)C(=Nc2ccc(N(CC)CCNS(C)(=O)=O)cc2C)C(=O)c2ccn(-c3ccccc3)c2C)cc1 [Cmp-4, reference compound] |
| 37 | 426 | 10,000 |  |  | CCCCc1ccc(NC(=O)C(=Nc2ccc(N(CC)CCNS(C)(=O)=O)cc2C)C(=O)c2c(C)[nH]c3ccccc23)cc1 [Coupler D-2] |
| 35 | 430 | 14,100 |  |  | CCCCc1ccc(NC(=O)C(=Nc2ccc(N(CC)CCNS(C)(=O)=O)cc2C)C(=O)c2c(-c3ccccc3)[nH]c3ccccc23)cc1 [Coupler D-7] |
| 47 | 444 | 13,400 |  |  | CCCCc1ccc(NC(=O)C(=Nc2ccc(N(CC)CCNS(C)(=O)=O)cc2C)C(=O)c2c(-c3ccccc3)oc3ccccc23)cc1 [Coupler D-13] |
|  |  |  | 2.48 | 78 h | CCCCCCCCCCCCCCCCCCOc1ccc(S(=O)(=O)Nc2ccccc2Cl)cc1NC(=O)C(=Nc1ccc(N(CC)CCNS(C)(=O)=O)cc1C)C(=O)N1CCc2ccccc21 [Cmp-6, reference compound] |
| 33 | 430 | 20,100 |  |  | CCCCc1ccc(NC(=O)C(=Nc2ccc(N(CC)CCNS(C)(=O)=O)cc2C)C(=O)c2c(-c3ccccc3)n(C)c3ccc(C#N)cc23)cc1 [Coupler D-12] |
| 42 | 428 | 11,800 |  |  | CCCCc1ccc(NC(=O)C(=Nc2ccc(N(CC)CCNS(C)(=O)=O)cc2C)C(=O)C(C)(C)C)cc1 [Cmp-7, reference compound] |
| 32 | 426 | 19,700 |  |  | CCCCc1ccc(NC(=O)C(=Nc2ccc(N(CC)CCNS(C)(=O)=O)cc2C)C(=O)c2c(-c3ccccc3)n(C)c3ccccc23)cc1 [Coupler D-1] |
